Experimental data from US11046690B2, “Pyridazinones and methods of use thereof” (Goldfinch Bio, Inc., priority 2018, dated 2021).

Molecular target: T1, TRPC4 (Homo sapiens, UniProt Q9UBN4)
T1 construct: expressed in transfected cells
T1 sequence (Q9UBN4 1-982 isoform Q9UBN4-5): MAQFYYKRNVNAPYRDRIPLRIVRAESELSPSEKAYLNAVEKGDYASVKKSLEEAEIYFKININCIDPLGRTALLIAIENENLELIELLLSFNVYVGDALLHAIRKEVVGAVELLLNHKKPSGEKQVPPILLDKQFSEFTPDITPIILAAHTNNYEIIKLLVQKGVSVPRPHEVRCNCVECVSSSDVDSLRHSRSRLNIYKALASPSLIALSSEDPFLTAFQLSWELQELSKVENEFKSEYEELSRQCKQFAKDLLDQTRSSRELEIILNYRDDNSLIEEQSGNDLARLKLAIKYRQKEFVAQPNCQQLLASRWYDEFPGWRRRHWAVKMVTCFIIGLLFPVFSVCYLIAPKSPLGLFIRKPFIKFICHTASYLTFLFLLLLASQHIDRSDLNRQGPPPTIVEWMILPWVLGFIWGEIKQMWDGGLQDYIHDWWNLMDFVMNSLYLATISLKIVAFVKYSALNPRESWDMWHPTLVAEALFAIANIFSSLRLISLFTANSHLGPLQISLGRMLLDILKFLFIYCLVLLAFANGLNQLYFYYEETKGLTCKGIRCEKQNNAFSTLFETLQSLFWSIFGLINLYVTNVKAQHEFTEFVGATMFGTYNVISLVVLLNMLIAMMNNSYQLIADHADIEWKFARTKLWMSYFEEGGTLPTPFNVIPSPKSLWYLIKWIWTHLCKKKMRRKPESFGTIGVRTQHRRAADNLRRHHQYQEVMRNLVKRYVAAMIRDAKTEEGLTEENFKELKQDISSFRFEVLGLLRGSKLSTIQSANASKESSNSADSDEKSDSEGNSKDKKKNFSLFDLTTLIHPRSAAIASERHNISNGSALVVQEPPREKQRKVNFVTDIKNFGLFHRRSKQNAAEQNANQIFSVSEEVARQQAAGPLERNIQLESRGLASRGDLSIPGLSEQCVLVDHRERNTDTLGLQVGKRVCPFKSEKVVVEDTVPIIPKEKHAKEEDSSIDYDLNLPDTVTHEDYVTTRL
Test: TRPC4 activity assay (FLIPR calcium fluorescence, Englerin A stimulation)
Type: cell-based
Conditions: HEK-TREx hTRPC4 cells, 100 nM Englerin A stimulation; read-out: TRPC4 (IC50 class)
Procedure: ICLN-1694 cells (HEK-TREx hTRPC4) expressing TRPC4 were generated as follows. Commercially available HekTrex-293 cells were seeded at 0.7×10^6 cells/well in a 1×6-well plate 24 hrs prior to transfection using 2 mL cell growth media containing no antibiotics (1× DMEM/high glucose (Hyclone #SH30022.02); 10%0/fetal bovine serum (Sigma) 2 mM sodium pyruvate, 10 mM HEPES). […] On day 2, 2 μg of plasmid DNA plus 6 μl of Xtreme-GENE HP reagent in Optimem (200 μl total volume) was prepared and incubated for 15 min at room temperature. This plasmid solution was then gently overlayed dropwise onto each well and the plate was gently swirled to mix complex with the media for approximately 30 seconds. Transfected cells were incubated at 37° C. in a 10% C02 incubator for 24 hrs. The transfected cells were harvested and transferred into 2×150 mm dishes containing cell growth media with no antibiotics at 37° C.
The next day selection was initiated to generate a stable pool by adding cell growth media containing 150 μg/mL Hygromycin and 5 μg/mL Blasticidin and cells were allowed to grow. Media with the selection agent was changed every 1-2 days as needed to remove dead cells. After 7 days, the hygromycin concentration was reduced to 75 μg/mL and cells growth was allowed to continue.
Single clones were selected as follows. The stable pool was diluted to 10 cells/mL and seeded (100 μl/well) into 24×96 well plates (˜1 cell/well) and allowed to grow for 7 days in cell growth media. Fresh media (100 μl) was added and the cells allowed to grow for another 1-2 weeks and then stored frozen or used immediately.
10-point dose response curves were generated using the Echo-550 acoustic dispenser. Compound source plates were made by serially diluting compound stocks to create 10 mM, 1 mM, and 0.1 mM solutions in DMSO into Echo-certified LDV plates. The Echo then serially spotted 100% DMSO stock solutions into source dose response plates to generate a 4-fold dilution scheme. 100% DMSO was added to the spotted dose response plates to bring the final volume to 5 μl. […] of the dose response stock plate was then spotted into pre-incubation and stimulation assay plates. 50 μl of pre-incubation buffer and 100 μl of stimulation buffer was then added to the plates resulting in a final assay test concentration range of 30 μM to 0.0001 μM with a final DMSO concentration of 0.3%.
ICLN-1694 cells (HEK-TREx hTRPC4) were plated onto 384 well, black pdl-coated microplates and maintained in cell growth media supplemented with 1 μg/mL tetracycline the day prior to use for experiments. TRPC4 expression was induced by the application of 1 μg/mL tetracycline at the time of plating. […] Cells were incubated at room temperature, protected from light, for 60-90 minutes. After the incubation period, the dye was removed and replaced with 10 μl of EBSS. Cell, pre-incubation and stimulation plates were loaded onto the FLIPR-II and the assay was initiated. The FLIPR measured a 10 second baseline and then added 10 μl of 2X compounds (or controls). Changes in fluorescence were monitored for an additional 5 minutes. After a 5 minute pre-incubation, 20 μl of 2X Englerin A (with 1X compound or controls) was added to the cell plate. The final Englerin A stimulation concentration in the assay was 100 nM. After the Englerin A addition, changes in fluorescence were monitored for an additional 5 minutes.
Compound modulation of TRPC4 calcium response was determined as follows. After the Englerin A, fluorescence was monitored for a 5-minute period. The maximum relative fluorescence response (minus the control response of 1 μM of an internal control compound known to maximally block TRPC4 calcium response, the “REF INHIB” in the formula below) was captured and exported from the FLIPR.
Compound effect is calculated as % inhibition using the following formula:
[formula] wherein “RFU” is the relative fluorescent units.

Structure (SMILES)	IC50 [nM]
CC1Cc2c(ncnc2Oc2ccc(F)cc2Cl)CN1c1cn[nH]c(=O)c1Cl (single isomer, unassigned) [Compound 117]	50 to 500
O=c1[nH]ncc(N2CCc3c(ncnc3Oc3ccc(F)cc3Cl)C2)c1Cl [Compound 104]	< 50
